Values of other authors, collected in patent publication US11591601B2, “Methods for identification and modification of lncRNA associated with target genotypes and phenotypes” (The Broad Institute, Inc., priority 2017, dated 2023).

Test system: Factor VII
Conditions: hepatocytes in vivo, Factor VII gene silencing model

Compound | gene silencing potency series of LNP siRNA systems containing the lipid
1,2-dilinoleyloxy-keto-N,N-dimethyl-3-aminopropane [DLinKDMA] | DLinKC2-DMA>DLinKDMA>DLinDMA>>DLinDAP
CCCCC/C=C\C/C=C\CCCCCCCC(=O)OCC(CN(C)C)OC(=O)CCCCCCC/C=C\C/C=C\CCCCC (stereo not shown) [DLinDAP, 1,2-dilineoyl-3-dimethylammonium-propane] | DLinKC2-DMA>DLinKDMA>DLinDMA>>DLinDAP
CCCCC/C=C\C/C=C\CCCCCCCCOCC(CN(C)C)OCCCCCCCC/C=C\C/C=C\CCCCC (stereo not shown) [DLinDMA, 1,2-dilinoleyloxy-3-N,N-dimethylaminopropane] | DLinKC2-DMA>DLinKDMA>DLinDMA>>DLinDAP
CCCCC/C=C\C/C=C\CCCCCCCCC1(CCCCCCCC/C=C\C/C=C\CCCCC)OCC(CCN(C)C)O1 (stereo not shown) [DLinKC2-DMA, 1,2-dilinoleyl-4-(2-dimethylaminoethyl)[1,3]-dioxolane] | DLinKC2-DMA>DLinKDMA>DLinDMA>>DLinDAP
